According to patent US12187742B2 (XRAD Therapeutics, Inc., priority 2018, dated 2025):
Counter-ions that a name gives are not always drawn.

Columns and labels:
DNA-PK = DNA-PK (Homo sapiens (Human), UniProt P78527); experiment: DNA-PK Enzyme-Linked Immunosorbent Assay (phosphorylation of GST-p53 (1-101) peptide); format: biochemical; conditions: ELISA
Outline: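 ELISA with plate-bound GST-p53 (1-101) phosphorylated by DNA-PK (0.1 μg/mL final) with 20 μM ATP for 1 h at 25 °C. Compounds tested over 10 3-fold doses from 100 nM top final. Phospho-p53 Ser15 detected by antibody, HRP and TMB, absorbance at 450 nm.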

ATM = ATM (Homo sapiens (Human), UniProt Q13315); experiment: ATM in Cell Western Assay (pKAP1 in etoposide-treated MCF-7 cells); format: cell-based
Outline: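 Cells received compounds in a 10-dose, 3-fold series from a 1 μM final top concentration, then 100 μM etoposide, for 1 hr at 37° C. They were then fixed with paraformaldehyde and permeabilized with 0.1% Triton X-100. After immunostaining, plates were scanned on an infrared imager.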

[1] = MCF-7 cells, etoposide 100 μM, 1 hr, pKAP1 readout
[2] = pKAP1 in etoposide-treated MCF-7 cells

Sequence of ATM (Q13315 whole entry): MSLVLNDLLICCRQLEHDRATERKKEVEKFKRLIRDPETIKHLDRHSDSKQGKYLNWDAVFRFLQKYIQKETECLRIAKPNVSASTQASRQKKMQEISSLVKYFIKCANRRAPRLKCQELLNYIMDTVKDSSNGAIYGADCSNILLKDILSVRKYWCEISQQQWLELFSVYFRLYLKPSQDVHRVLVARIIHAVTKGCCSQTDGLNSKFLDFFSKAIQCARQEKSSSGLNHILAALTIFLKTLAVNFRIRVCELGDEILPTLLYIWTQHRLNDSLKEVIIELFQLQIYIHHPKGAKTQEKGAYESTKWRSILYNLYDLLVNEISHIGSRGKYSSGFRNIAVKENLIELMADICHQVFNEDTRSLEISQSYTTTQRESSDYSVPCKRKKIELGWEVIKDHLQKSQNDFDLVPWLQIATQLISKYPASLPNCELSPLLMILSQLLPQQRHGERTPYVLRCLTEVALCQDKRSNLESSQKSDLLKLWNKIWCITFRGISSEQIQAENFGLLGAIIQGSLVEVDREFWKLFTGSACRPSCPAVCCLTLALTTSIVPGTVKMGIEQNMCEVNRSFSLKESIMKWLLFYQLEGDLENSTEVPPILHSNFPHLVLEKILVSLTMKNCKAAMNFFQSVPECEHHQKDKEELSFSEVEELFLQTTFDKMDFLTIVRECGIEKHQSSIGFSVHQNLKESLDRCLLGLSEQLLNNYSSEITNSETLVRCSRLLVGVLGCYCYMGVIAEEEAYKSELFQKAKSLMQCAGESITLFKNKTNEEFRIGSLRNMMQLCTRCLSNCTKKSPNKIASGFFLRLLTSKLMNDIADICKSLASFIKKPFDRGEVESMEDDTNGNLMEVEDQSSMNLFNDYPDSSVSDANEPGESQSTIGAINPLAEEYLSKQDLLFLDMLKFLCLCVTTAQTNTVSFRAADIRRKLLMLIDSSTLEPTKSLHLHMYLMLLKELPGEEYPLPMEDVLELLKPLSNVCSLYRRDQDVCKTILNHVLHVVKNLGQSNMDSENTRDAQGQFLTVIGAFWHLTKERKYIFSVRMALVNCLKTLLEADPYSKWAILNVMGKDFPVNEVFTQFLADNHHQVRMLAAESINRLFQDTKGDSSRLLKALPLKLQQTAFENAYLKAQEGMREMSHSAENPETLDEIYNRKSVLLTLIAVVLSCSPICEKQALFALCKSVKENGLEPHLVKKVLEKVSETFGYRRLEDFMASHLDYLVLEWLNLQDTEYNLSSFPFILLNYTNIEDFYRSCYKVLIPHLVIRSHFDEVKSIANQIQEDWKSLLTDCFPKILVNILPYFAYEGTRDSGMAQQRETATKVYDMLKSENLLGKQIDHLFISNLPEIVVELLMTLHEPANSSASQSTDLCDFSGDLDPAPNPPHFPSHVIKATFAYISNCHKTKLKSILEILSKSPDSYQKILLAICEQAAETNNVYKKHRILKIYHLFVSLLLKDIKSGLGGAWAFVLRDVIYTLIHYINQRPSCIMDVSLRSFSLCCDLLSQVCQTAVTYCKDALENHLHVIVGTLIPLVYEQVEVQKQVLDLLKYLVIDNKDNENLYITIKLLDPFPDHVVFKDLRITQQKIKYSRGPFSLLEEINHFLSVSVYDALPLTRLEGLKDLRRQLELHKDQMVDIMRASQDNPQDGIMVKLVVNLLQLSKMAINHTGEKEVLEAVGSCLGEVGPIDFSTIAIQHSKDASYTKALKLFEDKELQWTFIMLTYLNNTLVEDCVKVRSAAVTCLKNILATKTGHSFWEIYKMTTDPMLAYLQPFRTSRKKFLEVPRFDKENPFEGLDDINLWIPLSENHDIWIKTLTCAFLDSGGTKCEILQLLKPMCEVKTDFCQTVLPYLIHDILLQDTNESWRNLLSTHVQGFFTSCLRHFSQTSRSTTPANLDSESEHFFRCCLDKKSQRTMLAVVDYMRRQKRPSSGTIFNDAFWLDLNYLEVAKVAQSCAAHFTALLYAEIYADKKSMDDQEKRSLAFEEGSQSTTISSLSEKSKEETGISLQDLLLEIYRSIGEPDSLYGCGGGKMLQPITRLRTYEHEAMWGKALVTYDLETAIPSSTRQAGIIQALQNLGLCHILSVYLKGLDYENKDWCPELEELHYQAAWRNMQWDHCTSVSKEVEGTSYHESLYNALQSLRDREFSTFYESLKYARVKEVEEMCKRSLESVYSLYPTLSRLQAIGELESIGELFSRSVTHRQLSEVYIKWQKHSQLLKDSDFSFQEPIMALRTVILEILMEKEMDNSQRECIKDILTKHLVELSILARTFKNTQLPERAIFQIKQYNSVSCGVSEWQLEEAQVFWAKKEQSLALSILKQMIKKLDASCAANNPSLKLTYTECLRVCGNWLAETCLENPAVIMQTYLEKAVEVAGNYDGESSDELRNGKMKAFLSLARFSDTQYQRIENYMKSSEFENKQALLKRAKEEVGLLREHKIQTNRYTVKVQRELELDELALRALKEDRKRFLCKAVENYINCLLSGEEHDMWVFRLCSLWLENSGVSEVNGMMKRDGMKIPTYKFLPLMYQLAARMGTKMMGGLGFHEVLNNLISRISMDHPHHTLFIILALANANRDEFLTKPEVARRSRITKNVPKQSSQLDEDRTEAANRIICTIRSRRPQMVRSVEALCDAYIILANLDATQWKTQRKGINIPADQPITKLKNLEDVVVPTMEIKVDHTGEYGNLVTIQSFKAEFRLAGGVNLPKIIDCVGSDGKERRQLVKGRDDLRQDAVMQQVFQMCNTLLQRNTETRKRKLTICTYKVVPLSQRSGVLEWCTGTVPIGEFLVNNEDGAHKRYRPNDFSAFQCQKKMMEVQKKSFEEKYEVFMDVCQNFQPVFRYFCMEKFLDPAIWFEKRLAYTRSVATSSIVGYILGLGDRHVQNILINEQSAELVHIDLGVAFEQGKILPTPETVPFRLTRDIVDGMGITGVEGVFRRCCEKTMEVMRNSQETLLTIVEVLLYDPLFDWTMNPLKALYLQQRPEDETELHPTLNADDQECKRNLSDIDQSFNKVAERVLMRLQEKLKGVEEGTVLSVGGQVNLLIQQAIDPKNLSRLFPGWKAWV

| SMILES | IC50 (DNA-PK; ATP 20 μM) | IC50 (ATM; [1]) | IC50 (DNA-PK; 20 μM ATP) | IC50 (ATM; [2]) |
| --- | --- | --- | --- | --- |
| CN(C)CCCOc1ncc(-c2ccc3ncc4c(c3c2)C2(CCC2)C(=O)N4C)cc1NS(=O)(=O)c1cc(F)cc(F)c1 [Example 153, N-(2-(3-(Dimethylamino)propoxy)-5-(3′-methyl-2′-oxo-23′-dihydrospiro[cyclobutane-1,1′-pyrrolo[2,3-c]quinolin]-8′-yl)pyridin-3-yl)-3,5-difluorobenzenesulfonamide] | 0.5 to 1 nM | 1 to 100 nM | – | – |
| CN(C)CCCOc1ncc(-c2ccc3c(c2)c2c(c[n+]3[O-])N(C)C(=O)C23CC3)cc1NS(=O)(=O)c1ccccc1 [Example 123, 8′-(6-(3-(Dimethylamino)propoxy)-5-(phenylsulfonamido)pyridin-3-yl)-3′-methyl-2′-oxo-2′,3′-dihydrospiro[cyclopropane-1,1′-pyrrolo[2,3-c]quinoline]5′-oxide] | 1 to 100 nM | 1 to 100 nM | – | – |
| COc1ccc([C@H]2C[C@@]3(C2)C(=O)N(C)c2cnc4cc(F)c(-c5cnc(OCCNC(C)C)c(NS(C)(=O)=O)c5)cc4c23)cn1 [Example 431, trans-N-(5-(7′-Fluoro-3-(6-methoxypyridin-3-yl)-3′-methyl-2′-oxo-2′,3′-dihydrospiro[cyclobutane-1,1′-pyrrolo[2,3-c]quinolin]-8′-yl)-2-(2-(isopropylamino)ethoxy)pyridin-3-yl)methanesulfonamide] | – | – | > 100 nM | > 100 nM |
| Cc1ncc(S(=O)(=O)Nc2cc(-c3cc4c5c(cnc4cc3F)N(C)C(=O)C53CN(c4ccccc4)C3)cnc2OCCNC(C)C)s1 [Example 520, N-(5-(7′-Fluoro-3′-methyl-2′-oxo-1-phenyl-2′,3′-dihydrospiro[azetidine-3,1′-pyrrolo[2,3-c]quinolin]-8′-yl)-2-(2-(isopropylamino)ethoxy)pyridin-3-yl)-2-methylthiazole-5-sulfonamide] | – | – | 1 to 100 nM | 1 to 100 nM |
| CN1C(=O)C2(CCC2)c2c1cnc1ccc(-c3cnc(N4CCC(N5CCCCC5)CC4)c(NS(=O)(=O)c4ccc(F)cc4F)c3)cc21 [Example 206, N-(2-([1,4′-Bipiperidin]-1′-yl)-5-(3′-methyl-2′-oxo-2′,3′-dihydrospiro[cyclobutane-1,1′-pyrrolo[2,3-c]quinolin]-8′-yl)pyridin-3-yl)-2,4-difluorobenzenesulfonamide hydrochloride] | < 0.5 nM | 1 to 100 nM | – | – |
| CC(C)NCCOc1ncc(-c2cc3c(cc2F)ncc2c3[C@]3(C[C@H](Cc4ccccc4)C3)C(=O)N2C)cc1NS(C)(=O)=O [Example 451, cis-N-(5-(3-Benzyl-7′-fluoro-3′-methyl-2′-oxo-2′,3′-dihydrospiro[cyclobutane-1,1′-pyrrolo[2,3-c]quinolin]-8′-yl)-2-(2-(isopropylamino)ethoxy)pyridin-3-yl)methanesulfonamide] | – | – | 1 to 100 nM | 1 to 100 nM |
| COCc1ccc(N2CC3(C2)C(=O)N(C)c2cnc4cc(F)c(-c5cnc(OCCNC(C)C)c(NS(C)(=O)=O)c5)cc4c23)cc1 [Example 532, N-(5-(7′-Fluoro-1-(4-(methoxymethyl)phenyl)-3′-methyl-2′-oxo-2′,3′-dihydrospiro[azetidine-3,1′-pyrrolo[2,3-c]quinolin]-8′-yl)-2-(2-(isopropylamino)ethoxy)pyridin-3-yl)methanesulfonamide] | – | – | < 0.5 nM | 1 to 100 nM |
| CN1C(=O)C2(CCC2)c2c1cnc1ccc(-c3cnc(OCCCN4CCCCC4)c(NS(C)(=O)=O)c3)cc21 [Example 225, N-(5-(3′-Methyl-2′-oxo-2′,3′-dihydrospiro[cyclobutane-1,1′-pyrrolo[2,3-c]quinolin]-8′-yl)-2-(3-(piperidin-1-yl)propoxy)pyridin-3-yl)methanesulfonamide] | < 0.5 nM | 1 to 100 nM | – | – |
| CN1C(=O)C2(CC2)c2c1cnc1ccc(-c3cnc(N4CCC(N5CCCCC5)CC4)c(NS(=O)(=O)c4ccccc4)c3)cc21 [Example 213, N-(2-([1,4′-Bipiperidin]-1′-yl)-5-(3′-methyl-2′-oxo-2′,3′-dihydrospiro[cyclopropane-1,1′-pyrrolo[2,3-c]quinolin]-8′-yl)pyridin-3-yl)benzenesulfonamide methanesulfonate] | 1 to 100 nM | 1 to 100 nM | – | – |
| CN(C)CCCOc1ncc(-c2ccc3ncc4c(c3c2)C2(CN(c3ccccc3)C2)C(=O)N4C)cc1NS(=O)(=O)c1ccccc1 [Example 114, N-(2-(3-(Dimethylamino)propoxy)-5-(3′-methyl-2′-oxo-1-phenyl-2′,3′-dihydrospiro[azetidine-3,1′-pyrrolo[2,3-c]quinolin]-8′-yl)pyridin-3-yl)benzenesulfonamide] | 1 to 100 nM | 1 to 100 nM | – | – |
| CC(C)NCCOc1ncc(-c2cc3c(cc2F)ncc2c3[C@]3(C[C@H](OC(C)c4ccccc4)C3)C(=O)N2C)cc1NS(C)(=O)=O (stereo partly drawn) [Example 397, cis-N-(5-(7′-Fluoro-3′-methyl-2′-oxo-3-(1-phenylethoxy)-2′,3′-dihydrospiro[cyclobutane-1,1′-pyrrolo[2,3-c]quinolin]-8′-yl)-2-(2-(isopropylamino)ethoxy)pyridin-3-yl)methanesulfonamide] | – | – | < 0.5 nM | 1 to 100 nM |
| Cc1ccc(S(=O)(=O)Nc2cc(-c3ccc4ncc5c(c4c3)C3(CCC3)C(=O)N5C)cnc2OCCCN(C)C)cn1 [Example 137, N-(2-(3-(Dimethylamino)propoxy)-5-(3′-methyl-2′-oxo-2′,3′-dihydrospiro[cyclobutane-1,1′-pyrrolo[2,3-c]quinolin]-8′-yl)pyridin-3-yl)-6-methylpyridine-3-sulfonamide hydrochloride] | 1 to 100 nM | 1 to 100 nM | – | – |
| Cc1cc(S(=O)(=O)Nc2cc(-c3ccc4ncc5c(c4c3)C3(CCC3)C(=O)N5C)cnc2OCCCN(C)C)sn1 [Example 170, N-(2-(3-(Dimethylamino)propoxy)-5-(3′-methyl-2′-oxo-2′,3′-dihydrospiro [cyclobutane-1,1′-pyrrolo[2,3-c]quinolin]-8′-yl)pyridin-3-yl)-3-methylisothiazole-5-sulfonamide hydrochloride] | < 0.5 nM | 1 to 100 nM | – | – |

Continued, values first:

| IC50 (DNA-PK; ATP 20 μM) | IC50 (ATM; [1]) | IC50 (DNA-PK; 20 μM ATP) | IC50 (ATM; [2]) | SMILES |
| --- | --- | --- | --- | --- |
| 0.5 to 1 nM | 1 to 100 nM | – | – | COC1CCN(CCCOc2ncc(-c3ccc4ncc5c(c4c3)C3(CCC3)C(=O)N5C)cc2NS(C)(=O)=O)C1 (centres unmarked) [Example 283, N-(2-(3-(3-Methoxypyrrolidin-1-yl)propoxy)-5-(3′-methyl-2′-oxo-2′,3′-dihydrospiro[cyclobutane-1,1′-pyrrolo[2,3-c]quinolin]-8′-yl)pyridin-3-yl)methanesulfonamide] |
| – | – | 1 to 100 nM | 1 to 100 nM | CCS(=O)(=O)Nc1cc(-c2cc3c4c(cnc3cc2F)N(C)C(=O)C42CCC2)cnc1N1CC(N(C)C)C1 [Example 343, N-(2-(3-(Dimethylamino)azetidin-1-yl)-5-(7′-fluoro-3′-methyl-2′-oxo-2′,3′-dihydrospiro[cyclobutane-1,1′-pyrrolo[2,3-c]quinolin]-8′-yl)pyridin-3-yl)ethanesulfonamide formate] |
| 1 to 100 nM | 1 to 100 nM | – | – | CN(C)CCCOc1ncc(-c2ccc3ncc4c(c3c2)C2(CCC2)C(=O)N4C)cc1NS(=O)(=O)C1CCC1 [Example 253, N-(2-(3-(Dimethylamino)propoxy)-5-(3′-methyl-2′-oxo-2′,3′-dihydrospiro [cyclobutane-1,1′-pyrrolo[2,3-c]quinolin]-8′-yl)pyridin-3-yl) cyclobutanesulfonamide] |
| 0.5 to 1 nM | 0.5 to 1 nM | – | – | CNC1CN(c2ncc(-c3cc4c5c(cnc4cc3F)N(C)C(=O)C53CCC3)cc2NS(=O)(=O)C2CC2)C1 [Example 333, N-(5-(7′-Fluoro-3′-methyl-2′-oxo-2′,3′-dihydrospiro [cyclobutane-1,1′-pyrrolo [2,3-c]quinolin]-8′-yl)-2-(3-(methylamino)azetidin-1-yl)pyridin-3-yl)cyclopropanesulfonamide] |
| 1 to 100 nM | 1 to 100 nM | – | – | CCCS(=O)(=O)Nc1cc(-c2ccc3ncc4c(c3c2)C2(CCC2)C(=O)N4C)cnc1OCCCN(C)C [Example 241, N-(2-(3-(Dimethylamino)propoxy)-5-(3′-methyl-2′-oxo-2′,3′-dihydrospiro [cyclobutane-1,1′-pyrrolo[2,3-c]quinolin]-8′-yl)pyridin-3-yl)propane-1-sulfonamide] |
| – | – | 1 to 100 nM | 1 to 100 nM | CC(C)NCCOc1ncc(-c2cc3c(cc2F)ncc2c3[C@]3(C[C@H](c4ccccc4F)C3)C(=O)N2C)cc1NS(C)(=O)=O [Example 426, cis-N-(5-(7′-Fluoro-3-(2-fluorophenyl)-3′-methyl-2′-oxo-2′,3′-dihydrospiro[cyclobutane-1,1′-pyrrolo[2,3-c]quinolin]-8′-yl)-2-(2-(isopropylamino)ethoxy)pyridin-3-yl)methanesulfonamide] |
| – | – | 1 to 100 nM | 1 to 100 nM | CC(C)NCCOc1ncc(-c2cc3c(cc2F)ncc2c3[C@]3(C[C@H](c4ccncc4)C3)C(=O)N2C)cc1NS(C)(=O)=O [Example 438] |
| 1 to 100 nM | 1 to 100 nM | – | – | CN(C)CCCOc1ncc(-c2ccc3ncc4c(c3c2F)C2(CCC2)C(=O)N4C)cc1NS(C)(=O)=O [Example 268, N-(2-(3-(Dimethylamino)propoxy)-5-(9′-fluoro-3′-methyl-2′-oxo-2′,3′-dihydrospiro[cyclobutane-1,1′-pyrrolo[2,3-c]quinolin]-8′-yl)pyridin-3-yl)methanesulfonamide] |
| – | – | 0.5 to 1 nM | 1 to 100 nM | COC[C@H]1C[C@]2(C1)C(=O)N(C)c1cnc3cc(F)c(-c4cnc(OCCNC(C)C)c(NS(C)(=O)=O)c4)cc3c12 [Example 404, cis-N-(5-(7′-Fluoro-3-(methoxymethyl)-3′-methyl-2′-oxo-2′,3′-dihydrospiro[cyclobutane-1,1′-pyrrolo[2,3-c]quinolin]-8′-yl)-2-(2-(isopropylamino)ethoxy)pyridin-3-yl)methanesulfonamide] |
